In PubChem BioAssay AID1259333 (Broad Institute, 2017):
Active and inactive are the calls of the source. No rule for the calls is given here; tested in parental BL2 cells.

Experiment: cell cytotoxicity, dose response, cytotoxicity control, CellTiter-Glo (AID 1259333);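 also: 0% = vehicle neutral controls and -100% = reference inhibitor positive controls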
Conditions: cytotoxicity, CellTiter-Glo ATP luminescence; at 3.5 µM (top of the series)

| SMILES | activity change, negative = cytotoxicity |
| --- | --- |
| C[C@H](CO)N1C[C@H](C)[C@H](CN(C)CC2CCCCC2)Oc2ccc(NC(=O)Nc3ccc(C(F)(F)F)cc3)cc2C1=O | 32.8% (inactive) |
| C[C@]12CC[C@H](O)C[C@H]1CC[C@@H]1[C@@H]2CC[C@]2(C)[C@@H](c3ccc(=O)oc3)CC[C@]12O | 25.8% (inactive) |
| C[C@@H]1CN([C@@H](C)CO)C(=O)Cc2cc(NS(=O)(=O)c3ccccc3)ccc2O[C@H]1CN(C)Cc1ccc(Cl)c(Cl)c1 | 24.1% (inactive) |

Same assay, conditions: cytotoxicity, CellTiter-Glo ATP luminescence; at 9 µM (top of the series)

| SMILES | activity change, negative = cytotoxicity |
| --- | --- |
| C[C@@H]1CN([C@H](C)CO)C(=O)c2c(c3ccccc3n2C)-c2ccccc2CO[C@@H]1CN(C)S(=O)(=O)c1ccccc1C#N | 42.3% (inactive) |

Same assay, conditions: cytotoxicity, CellTiter-Glo ATP luminescence; at 10 µM (top of the series)

| SMILES | activity change, negative = cytotoxicity |
| --- | --- |
| c1ccc(OCCSc2nnc3sc4ccccc4n23)cc1 | -14.5% (inactive) |
| Nc1ccc(-c2cccc3c(=O)cc(N4CCOCC4)oc23)cc1 | 15.1% (inactive) |
| Oc1ccc2c(c1)OCC1(O)Cc3cc(O)c(O)cc3C21 (stereo unspecified) | 8.98% (inactive) |
| O=C(Nc1nc2ccccc2s1)c1ccc(OCC2CCCO2)cc1 (stereo unspecified) | 24.7% (inactive) |
| Cc1ccc(C(CC(=O)NCc2ccco2)c2ccc(OC(C)C)cc2)cc1 (stereo unspecified) | -3.48% (inactive) |
| Oc1c(Cl)cc(Cl)cc1Sc1cc(Cl)cc(Cl)c1O | 11% (inactive) |
| O=c1cc(-c2ccccc2)oc2cc(O)cc(O)c12 | 52.1% (inactive) |
| O=C(CNCCO)N1N=C(c2cccs2)CC1c1cccs1 (stereo unspecified) | 18.9% (inactive) |
| CO[C@@H](CN(C)S(=O)(=O)c1ccc(Cl)cc1)[C@H](C)CN(Cc1ccccc1Cl)[C@@H](C)CO | 1.13% (inactive) |
| CC(=O)[C@]1(O)Cc2c(O)c3c(c(O)c2[C@@H](O[C@H]2C[C@H](N)[C@H](O)[C@H](C)O2)C1)C(=O)c1ccccc1C3=O | -5.56% (inactive) |
| COc1ccc(CN2CC3(CN(S(=O)(=O)c4ccc(C)cc4)C3)c3c([nH]c4cc(OC)ccc34)[C@H]2CO)cc1 | 20.2% (inactive) |
| COc1ccc(C#Cc2ccc([C@H]3[C@H]4CN(C(=O)c5ccncc5)CCCCN4[C@H]3CO)cc2)cc1 | 30.7% (inactive) |
| COc1cccc2c1C(=O)c1c(O)c3c(c(O)c1C2=O)C[C@@](O)(C(C)=O)C[C@@H]3O[C@H]1C[C@H](N)[C@H](O)[C@H](C)O1 | 13.8% (inactive) |
| N#Cc1ccc(-c2ccc3c(c2)[C@H]2[C@H](CCN2C(=O)C2CC2)[C@@H](CO)N3)cc1 | 66.9% (inactive) |
| N#CC(C#N)=NNc1cccc(Cl)c1 | 69.4% (inactive) |
| COc1cccc(S(=O)(=O)N(C)C[C@H]2OCc3ccccc3-c3c(n(C)c4ccccc34)C(=O)N([C@@H](C)CO)C[C@@H]2C)c1 | 28.3% (inactive) |
| COc1cccc(S(=O)(=O)N(C)C[C@@H]2OCc3ccccc3-c3c(n(C)c4ccccc34)C(=O)N([C@@H](C)CO)C[C@@H]2C)c1 | 3.23% (inactive) |
| CCCNC(=O)c1cc2c(c(-c3cccc(-c4cc5ccccc5o4)c3)n1)[C@H](CCO)N(C(=O)NC(C)C)C2 | 109% (inactive) |
| N#C[C@@H]1[C@@H](c2ccccc2)[C@H](CO)N1C(=O)CN1CCOCC1 | 77.6% (inactive) |
| O=C(C1CCOCC1)N1CC(=O)N2[C@H](C1)[C@H](c1ccc(C#CCc3ccccc3)cc1)[C@@H]2CO | 95.5% (inactive) |
| Oc1cc(O)cc(/C=C/c2ccc(O)c(O)c2)c1 | 129% (inactive) |
| CC(=O)Nc1nc2nc(-c3ccccc3)cc(-c3ccccc3)n2n1 | 47.9% (inactive) |

| SMILES | activity change, negative = cytotoxicity |
| --- | --- |
| CCc1cnc(N2[C@H](C#N)[C@H](c3ccc(C#Cc4ccccc4F)cc3)[C@H]2CO)s1 | 12.3% (inactive) |
| N#C[C@@H]1[C@H](c2ccc(C#Cc3ccc(F)cc3)cc2)[C@@H](CO)N1C(=O)C1CCC1 | 5.33% (inactive) |
| c1cncc(C2=NCCC2)c1 | 36.6% (inactive) |
| c1ccc2c(c1)OCC(C1=NCCN1)O2 (stereo unspecified) | 56.8% (inactive) |
| O=S(c1ccccc1O)S(=O)c1ccccc1O (stereo unspecified) | 40.7% (inactive) |
| C[C@@H]1CN([C@H](C)CO)C(=O)c2cc(NS(=O)(=O)c3cccs3)ccc2O[C@@H](C)CCCCO[C@H]1CN(C)Cc1ccc(Cl)c(Cl)c1 | 16.1% (inactive) |
| CCOc1ncccc1C(=O)OC(C)C(=O)Nc1ccc(Cl)cn1 (stereo unspecified) | 24.8% (inactive) |
| COc1cccc(/C=N/Nc2ccc(C(=O)O)cc2)c1O | 5.24% (inactive) |
| Cc1ccc(C2(C)NC(=O)N(CC(=O)Nc3cccnc3Cl)C2=O)cc1 (stereo unspecified) | 21.9% (inactive) |
| N#Cc1cccc(-c2ccc(C3[C@@H]4CN(C(=O)Nc5ccc(C(F)(F)F)cc5)C[C@H]3N4)cc2)c1 (stereo partly specified) | -11.5% (inactive) |
| C[C@H]1CN([C@@H](C)CO)C(=O)c2c(c3ccccc3n2C)-c2ccccc2CO[C@H]1CN(C)C(=O)Nc1ccccc1C(F)(F)F | -4.57% (inactive) |
| CC12CN3CC(C)(CN(C1)C3c1ccc3c(c1)OCO3)C2=O (stereo unspecified) | 48.6% (inactive) |
| COc1ccc(CN(CCC(c2ccc(F)cc2)C2CCOC(C)(C)C2)C(=O)c2ccco2)cc1 (stereo unspecified) | 263% (inactive) |
| CCCCC1C(=O)NC(=S)N(C)C1=O (stereo unspecified) | 33.7% (inactive) |
| c1ccc(CCSc2nccn2-c2ccccc2)cc1 | 33.3% (inactive) |
| COc1ccc(S(=O)(=O)N(C)C[C@@H]2Oc3ccc(NC(=O)Nc4ccc(C(F)(F)F)cc4)cc3C(=O)N([C@H](C)CO)C[C@H]2C)cc1 | 22.7% (inactive) |
| O=C(/C=C/c1cccs1)c1ccc(N2CCOCC2)cc1 | 23.6% (inactive) |
| CC1CC(C)(C)Nc2ccc(OC(=O)c3ccco3)cc21 (stereo unspecified) | 203% (inactive) |
| C[C@H]1CN([C@@H](C)CO)C(=O)Cc2cc(NS(=O)(=O)c3cccs3)ccc2O[C@@H]1CN(C)Cc1ccc(Cl)c(Cl)c1 | 29.8% (inactive) |
| O=C(O)c1ccc(Nc2nc3c(s2)CCCC3)cc1 | 38.4% (inactive) |
| CCN1C(=O)C(CC(=O)Nc2ccc(F)cc2)N(Cc2ccco2)C1=S (stereo unspecified) | 18% (inactive) |
| O=C(NC(=S)/C(=C1\CCCCCN1)[N+](=O)[O-])c1ccccc1 | 16.4% (inactive) |

| SMILES | activity change, negative = cytotoxicity |
| --- | --- |
| CC(=O)c1cc(-c2ccccc2)n(CC(=O)NCc2cccs2)c1C | 2.3% (inactive) |
| C[C@@H]1CN([C@H](C)CO)C(=O)c2c(c3ccccc3n2C)-c2ccccc2CO[C@H]1CN(C)C(=O)Nc1ccccc1C(F)(F)F | -16.3% (inactive) |
| COc1ccc(S(=O)(=O)Nc2ccc3c(c2)C(=O)N([C@@H](C)CO)C[C@@H](C)[C@@H](CN(C)Cc2ccc(C(F)(F)F)cc2)OCCCC[C@@H](C)O3)cc1 | -20.6% (inactive) |
| COc1cccc(S(=O)(=O)N(C)C[C@H]2OCc3ccccc3-c3c(n(C)c4ccccc34)C(=O)N([C@H](C)CO)C[C@@H]2C)c1 | 20.3% (inactive) |
| COc1ccc(Cl)cc1NC(=O)Nc1cc(C)nc2ccccc12 | 60.2% (inactive) |
| Cc1nc(C)c(C(=O)Nc2ncc([N+](=O)[O-])s2)o1 | 29.6% (inactive) |
| Cc1noc(C)c1S(=O)(=O)Nc1ccc2c(c1)C(=O)N([C@@H](C)CO)C[C@@H](C)[C@@H](CN(C)C(=O)Nc1cccc3ccccc13)OCCCC[C@H](C)O2 | 25.9% (inactive) |
| O=C1C(=NO)CCc2ccccc21 | 115% (inactive) |
| CC1CC(C)CC(C)C(O)C(C#N)=CC=CCC(C2CCCC2C(=O)O)OC(=O)CC(O)C(C)C1 (stereo unspecified) | -8.2% (inactive) |
| O=C(C[C@@H]1C[C@H]2c3cc(NC(=O)Nc4ccc(C(F)(F)F)cc4)ccc3O[C@H]2[C@H](CO)O1)NCc1cc(F)ccc1F | 31.2% (inactive) |
| O=C(C[C@H]1CC[C@@H]2[C@H](COC[C@H](O)CN2Cc2cc(F)ccc2F)O1)NCc1ccc(Oc2ccccc2)cc1 | 17% (inactive) |
| CC(=O)OCC(=O)C1(O)CCC2C3CCC4=CC(=O)CCC4(C)C3(Cl)C(O)CC21C (stereo unspecified) | 25.5% (inactive) |
| CC(C)(C)n1cc(C(=O)c2ccc3ccccc3c2O)cn1 | 24.3% (inactive) |
| Cc1ccccc1C(=O)N1CCC(C(=O)Nc2nc3ccc(F)cc3s2)CC1 | 18.4% (inactive) |
| N#C[C@H]1[C@H](c2ccc(C#Cc3ccccc3F)cc2)[C@H](CO)N1C(=O)C1CC1 | 91.9% (inactive) |
| Cc1cccc(-c2ccc(C3[C@@H]4CN(C(=O)Nc5ccc(C(F)(F)F)cc5)C[C@H]3N4)cc2)c1 (stereo partly specified) | 26.3% (inactive) |
| C[C@@H]1CN([C@@H](C)CO)C(=O)c2c(c3ccccc3n2C)-c2ccccc2CO[C@H]1CN(C)Cc1cccc(C(=O)Nc2ccccc2N)c1 | 26.3% (inactive) |
| CC1CC(C)C(=O)C(C(CC2CC(=O)NC(=O)C2)OC(=O)CC(=O)c2ccccc2)C1 (stereo unspecified) | 11.5% (inactive) |
| c1ccc(-c2nnc(-c3ccccn3)nn2)nc1 | 22.8% (inactive) |
| COc1cccc(S(=O)(=O)N(C)C[C@@H]2OCc3ccccc3-c3c(n(C)c4ccccc34)C(=O)N([C@H](C)CO)C[C@H]2C)c1 | 9.22% (inactive) |
| C[C@H]1CCCC(=O)CCC/C=C/c2cc(O)cc(O)c2C(=O)O1 | 29.3% (inactive) |

Same assay, conditions: cytotoxicity, CellTiter-Glo ATP luminescence; at 11 µM (top of the series)

| SMILES | activity change, negative = cytotoxicity |
| --- | --- |
| COc1ccc(-c2ccc([C@H]3[C@@H](C#N)N(C(=O)c4cccc(F)c4)[C@H]3CO)cc2)cc1 | 24% (inactive) |
| C[C@@H]1CN([C@H](C)CO)C(=O)Cc2cc(NC(=O)Cc3cn(C)c4ccccc34)ccc2O[C@H]1CN(C)Cc1ccc(C(F)(F)F)cc1 | 6.35% (inactive) |
